Key:
[1] = Liver enzymes (ALT, AST) in SEC-bearing mice; format: in vivo, Swiss albino mice; details: 6 mg/Kg B.W., IP
Method: (§1) The full methodology of tumour induction, treatments, and blood measurements was carried out according to the described details in the supporting information (SI 5). Moreover, the experimental protocol was approved by the Research Ethics Committee at Suez Canal University (Approval number REC139/2022, Chemistry Department, Faculty of Science, Suez Canal University). […]
(§2) that were I.P. implanted into each normal mouse. SEC cells (1 × 10^6 tumor cells/mouse) were implanted subcutaneously into the right thigh of the hind limb.
(§3) The experimental animals were randomly divided into four groups. Group 1 served as the normal saline control. Group 2 served as the SEC control (1 × 10^6 cells/mouse). Group 3 served as the compound-treated group (6 mg/kg B.Wt., I.P.). Group 4 received the standard anticancer drug of […]
survival were recorded daily until the 24th day in both treated and control groups. At the end of experiment, the blood of each group was collected under light anesthesia for estimation of hematological and biochemical assays. The anesthetized animals were then sacrificed for evaluation of the antitumor activity and histopathological examination. […]
At the end of the experiment, animals from different groups were sacrificed, and blood samples were collected for determination of liver enzymes ALT, AST levels. Activities of aspartate aminotransferase (AST) and alanine aminotransferase (ALT) were evaluated using commercial kits (ELITech clinical systems, France). […]

[2] = Cytotoxic effect against normal cell line; format: cell-based; details: human, normal cell line PSC-800-011; read-out: Cytotoxicity IC50, PSC-800-011
Method: Following, the cytotoxic effect of compound 5e against a normal cell line, PSC-800–011, was also assigned to evaluate the selectivity of the compound towards the cancer cell lines. […] However, the selectivity index (SI) of compound 5e was also calculated to confirm its selectivity. It was known that any sample that has an SI value higher than 3 will be considered to have high selectivity.

[3] = system: Solid Ehrlich carcinoma (SEC); experiment: In vivo anti-tumour activity in SEC-bearing mice; parameters: species or system Swiss albino mice; details: 6 mg/Kg B.W., IP
Method: as §1
SI 5.1. Animals and tumor cell line
Adult female Swiss albino mice purchased from Theodor Bilharzia Research Institute, Giza, Egypt, with an average body weight of (18-23) g was used. Mice were housed under constant conditions of 12 h light/dark cycle in a […], with free access to standard laboratory mice food and water.
All procedures related to care and maintenance of the animals were performed according to the international guiding principles for animal research and approved by Faculty of Science, Suez Canal University bioethics and animal ethics committee (Approval number REC-01-2022).
Solid Ehrlich carcinoma (SEC) were got from the National Cancer Institute (Cairo University, Egypt). The tumor cell line was proliferated in mice through serial intraperitoneal (I.P.) transplantation of a volume of 0.2 mL physiological saline contains 1 × 10^6 viable cells for 24 h. SEC cells were collected 7 days after I.P. implantation. The harvested cells were diluted with saline to obtain a concentration of 5 × 10^6 viable SEC cells/mL. A volume of 0.2 mL saline contains 1 × 10^6 SEC cells […]
as §2, §3
survival were recorded daily until the 24th day in both treated and control groups. At the end of experiment, the blood of each group was collected under light anesthesia for estimation of hematological and biochemical assays. The anesthetized animals were then sacrificed for evaluation of the antitumor activity and histopathological examination.
SI 5.2. Antitumor potentiality
It includes tumor volume, weight, and tumor inhibition ration (TIR%). Time interval measurements of tumor volume using digital Vernier caliper (Tricle Brand, Shanghai, China). Measure tumor length and width using clipper and then calculate tumor volume using formulations V = (L x W x W)/2, where V is tumor volume, W is tumor width, L is tumor length. While TIR% was calculated according to the following equation: […]. […]

leukaemia SR cells = experiment: Anti-proliferative effect against SR cell line (MTT assay); format: cell-based; details: Homo sapiens; leukaemia SR cells; unit as in head of Table 3; read-out: Cytotoxicity IC50, SR
Method: The anti-proliferative effect of the 5e counterpart against the SR cell line was estimated using the MTT assay protocol.
Depending on the previous results, the cytotoxic activity of the designed candidate 5e was then evaluated against leukaemia SR cells. Doxorubicin was also evaluated as a reference drug.

SMILES: COc1cccc2c1C(=O)c1c(O)c3c(c(O)c1C2=O)C[C@@](O)(C(=O)CO)C[C@@H]3O[C@H]1C[C@H](N)[C@H](O)[C@H](C)O1 [Doxorubicin, reference compound]
- ALT ([1]; SEC control 65.9 U/L): 34.8 U/L
- AST ([1]; SEC control 71 U/L): 35.6 U/L
- IC50 [2]: 12.8 ± 0.79 µM
- Solid tumour mass ([3]; SEC control 226 mg): 82.3 mg
- Tumour volume ([3]; SEC control 80.6 mm^3): 27.5 mm^3
- IC50 (leukaemia SR cells): 3.78 ± 0.14 µM

— paper PMC9848257, “Design and synthesis of novel rigid dibenzo[b,f]azepines through ring closure technique as promising anticancer candidates against leukaemia and acting as selective topoisomerase II inhibitors and DNA intercalators” (Journal of Enzyme Inhibition and Medicinal Chemistry, 2023)
